This data set concerns CCRIS mutagenicity, Ames/micronucleus/aberration tests. In words: CCRIS mutagenicity studies.
[1] abbreviates: Test System: AMES SALMONELLA TYPHIMURIUM, Strain/Indicator: TA98, Metabolic Activation: NONE, Method: STANDARD PLATE.
[2] abbreviates: Test System: AMES SALMONELLA TYPHIMURIUM, Strain/Indicator: TA98, Metabolic Activation: RAT, LIVER, S-9, AROCLOR 1254, Method: STANDARD PLATE.
[3] abbreviates: Test System: AMES SALMONELLA TYPHIMURIUM, Strain/Indicator: TA100, Metabolic Activation: NONE, Method: STANDARD PLATE.
The mark [4] stands for this setting: Test System: AMES SALMONELLA TYPHIMURIUM, Strain/Indicator: TA100, Metabolic Activation: RAT, LIVER, S-9, AROCLOR 1254, Method: STANDARD PLATE.
Where [5] appears, read: Test System: AMES SALMONELLA TYPHIMURIUM, Strain/Indicator: TA1535, Metabolic Activation: NONE, Method: STANDARD PLATE.
Setting [6] is: Test System: AMES SALMONELLA TYPHIMURIUM, Strain/Indicator: TA1535, Metabolic Activation: RAT, LIVER, S-9, AROCLOR 1254, Method: STANDARD PLATE.
Setting [7] is: Test System: AMES SALMONELLA TYPHIMURIUM, Strain/Indicator: TA1537, Metabolic Activation: NONE, Method: STANDARD PLATE.
[8] abbreviates: Test System: AMES SALMONELLA TYPHIMURIUM, Strain/Indicator: TA1537, Metabolic Activation: RAT, LIVER, S-9, AROCLOR 1254, Method: STANDARD PLATE.
[9] abbreviates: Test System: AMES SALMONELLA TYPHIMURIUM, Strain/Indicator: TA1538, Metabolic Activation: NONE, Method: STANDARD PLATE.
Setting [10] is: Test System: AMES SALMONELLA TYPHIMURIUM, Strain/Indicator: TA1538, Metabolic Activation: RAT, LIVER, S-9, AROCLOR 1254, Method: STANDARD PLATE.
The mark [11] stands for this setting: Test System: MOUSE LYMPHOMA, Strain/Indicator: L5178Y (TK+/TK-), Metabolic Activation: NONE, Method: SUSPENSION/PLATE.

The structures appear in SMILES notation. Calls of active or inactive are those of the source. How the calls were made is not given here.

Take `CCOC(=O)CC(=O)CCl`: the mutagenic call is “inactive; negative” (Test System: AMES SALMONELLA TYPHIMURIUM, Strain/Indicator: TA98, Metabolic Activation: HAMSTER, LIVER, S-9, AROCLOR 1254, Method: STANDARD PLATE); “inactive; negative” under setting [1]; “inactive; negative” under setting [2]; “inactive; negative” (Test System: AMES SALMONELLA TYPHIMURIUM, Strain/Indicator: TA100, Metabolic Activation: HAMSTER, LIVER, S-9, AROCLOR 1254, Method: STANDARD PLATE); “inactive; negative” under setting [3]; “inactive; negative” under setting [4]. Moreover, the mutagenic call is, setting by setting: (Test System: AMES SALMONELLA TYPHIMURIUM, Strain/Indicator: TA1535, Metabolic Activation: HAMSTER, LIVER, S-9, AROCLOR 1254, Method: STANDARD PLATE) “inactive; negative”; under setting [5], “inactive; negative”; under setting [6], “inactive; negative”; (Test System: AMES SALMONELLA TYPHIMURIUM, Strain/Indicator: TA1537, Metabolic Activation: HAMSTER, LIVER, S-9, AROCLOR 1254, Method: STANDARD PLATE) “inactive; negative”; under setting [7], “inactive; negative”; under setting [8], “inactive; negative”. In addition, the mutagenic call (Test System: AMES SALMONELLA TYPHIMURIUM, Strain/Indicator: TA1538, Metabolic Activation: HAMSTER, LIVER, S-9, AROCLOR 1254, Method: STANDARD PLATE) is “inactive; negative”; the mutagenic call under setting [9] is “inactive; negative”; the mutagenic call under setting [10] is “inactive; negative”; the mutagenic call under setting [11] is “active; positive. reevaluation of results: positive”; the mutagenic call (Test System: MOUSE LYMPHOMA, Strain/Indicator: L5178Y (TK+/TK-), Metabolic Activation: RAT, LIVER, S-9, AROCLOR 1254, Method: SUSPENSION/PLATE) is “active; positive. reevaluation of results: positive”.

As for `Cc1ccc(NCCO)cc1O`, the mutagenic call is, setting by setting: under setting [1], “inactive; negative”; under setting [2], “inactive; negative”; under setting [3], “inactive; negative”; under setting [4], “inactive; negative”; under setting [5], “inactive; negative”; under setting [6], “inactive; negative”. Besides, the mutagenic call under setting [7] is “inactive; negative”; the mutagenic call under setting [8] was “inactive; negative”; the mutagenic call under setting [9] is “inactive; negative”; the mutagenic call under setting [10] was “inactive; negative”; the mutagenic call under setting [11] was “inactive; negative”; the mutagenic call (Test System: UDS HUMAN CELLS, Strain/Indicator: THY INCORP, Metabolic Activation: NONE, Method: LIQUID SCINTILLATION COUNTING) was “inactive; negative”. Where the note is “Test System: UDS HUMAN CELLS, Strain/Indicator: THY INCORP, Metabolic Activation: RAT, LIVER, S-9, PHENOBARBITAL AND BETA-NAPHTHOFLAVONE, Method: LIQUID SCINTILLATION COUNTING”, the mutagenic call is “inactive; negative”.

As for `C[C@]12CC[C@@H]3c4ccc(OC(=O)c5ccccc5)cc4CC[C@H]3[C@@H]1CC[C@@H]2O`, the mutagenic call (End Point: IN VIVO MICRONUCLEUS, Test System: BONE MARROW POLYCHROMATIC ERYTHROCYTES, Species: RAT, Strain/Sex: ALDERLEY PARK (AP)/FEMALE, Route: SUBCUTANEOUS (TEST MATERIAL SOLVENT: OIL)) is “inactive; negative”.

Turning to `O=[N+]([O-])c1cc2c3ccccc3ccc2c2ccccc12`, the mutagenic call by setting is: (Test System: AMES SALMONELLA TYPHIMURIUM, Strain/Indicator: TA98, Metabolic Activation: HAMSTER LIVER S-9, 6-NITROCHRYSENE, Method: PREINCUBATION) “active; positive”; (Test System: AMES SALMONELLA TYPHIMURIUM, Strain/Indicator: TA98, Metabolic Activation: HAMSTER LIVER S-9, Method: PREINCUBATION) “active; positive”; under setting [1], “active; positive”; (Test System: AMES SALMONELLA TYPHIMURIUM, Strain/Indicator: TA98, Metabolic Activation: RAT, LIVER, S-9, AROCLOR 1254, Method: PREINCUBATION) “active; positive”; under setting [2], “active; positive”; (Test System: AMES SALMONELLA TYPHIMURIUM, Strain/Indicator: TA98, Metabolic Activation: RAT, LIVER, S-9, Method: PREINCUBATION) “active; positive”. Besides, the mutagenic call (Test System: AMES SALMONELLA TYPHIMURIUM, Strain/Indicator: TA100, Metabolic Activation: HAMSTER LIVER S-9, 6-NITROCHRYSENE, Method: PREINCUBATION) is “active; positive”; the mutagenic call (Test System: AMES SALMONELLA TYPHIMURIUM, Strain/Indicator: TA100, Metabolic Activation: HAMSTER LIVER S-9, Method: PREINCUBATION) was “active; positive”; the mutagenic call (Test System: AMES SALMONELLA TYPHIMURIUM, Strain/Indicator: TA100, Metabolic Activation: NONE, Method: PREINCUBATION) is “active; positive”; the mutagenic call under setting [3] was “active; positive”; the mutagenic call (Test System: AMES SALMONELLA TYPHIMURIUM, Strain/Indicator: TA100, Metabolic Activation: RAT, LIVER, S-9, AROCLOR 1254, Method: PREINCUBATION) was “active; positive”; the mutagenic call under setting [4] is “active; positive”. In addition, the mutagenic call is “active; positive” (Test System: AMES SALMONELLA TYPHIMURIUM, Strain/Indicator: TA100, Metabolic Activation: RAT, LIVER, S-9, Method: PREINCUBATION); “active; positive” (Test System: AMES SALMONELLA TYPHIMURIUM, Strain/Indicator: TA102, Metabolic Activation: HAMSTER LIVER S-9, 6-NITROCHRYSENE, Method: PREINCUBATION); “active; positive” (Test System: AMES SALMONELLA TYPHIMURIUM, Strain/Indicator: TA102, Metabolic Activation: HAMSTER LIVER S-9, Method: PREINCUBATION); “inactive; negative” (Test System: AMES SALMONELLA TYPHIMURIUM, Strain/Indicator: TA102, Metabolic Activation: NONE, Method: PREINCUBATION); “inactive; negative” (Test System: CHINESE HAMSTER OVARY, Strain/Indicator: CHO-K1-BH4 (HGPRT)/6-THIOGUANINE, Metabolic Activation: NONE, Method: STANDARD PLATE); “active; positive” (Test System: CHINESE HAMSTER OVARY, Strain/Indicator: CHO-K1-BH4 (HGPRT)/6-THIOGUANINE, Metabolic Activation: RAT, LIVER, S-9, AROCLOR 1254, Method: STANDARD PLATE). Further, the mutagenic call reads like this: (Test System: CHINESE HAMSTER OVARY, Strain/Indicator: CHO-UV5 (HGPRT)/6-THIOGUANINE, Metabolic Activation: NONE, Method: STANDARD PLATE) “active; positive”; (Test System: CHINESE HAMSTER OVARY, Strain/Indicator: CHO-UV5 (HGPRT)/6-THIOGUANINE, Metabolic Activation: RAT, LIVER, S-9, AROCLOR 1254, Method: STANDARD PLATE) “active; positive”.

Values taken from PubChem BioAssay AID1259407 (Chemical Carcinogenesis Research Information System (CCRIS), 2018).
